Test results as given in ChEMBL document CHEMBL5518164, “Membrane-permeable tenofovir-di- and monophosphate analogues” (Eur J Med Chem, 2024).
Activity calls are given as the source filed them. No cut-off for these calls is given here.

How the values were obtained:
[1] = Half life of the compound in human CEM/0 cell extracts by RP18-HPLC analysis; format: ADME, CCRF-CEM
[2] = Half life of the compound in phosphate buffer saline at pH 7.3 by RP18-HPLC analysis; format: ADME
[3] = Half life of the compound in phosphate buffer saline in presence of pig liver esterase at pH 7.3 by RP18-HPLC analysis; format: ADME, Sus scrofa
[4] = Half life of the compound in heparin-stabilized human plasma by HPLC analysis; format: ADME, cell-free
[5] = Half life of the compound in citrate-containing human plasma by HPLC analysis; format: ADME, cell-free
[6] = Drug metabolism in heparin-stabilized human plasma assessed as (R)-9-(2-(phosphonomethoxy)propyl)adenine formation by HPLC analysis; format: ADME, cell-free
[7] = Lipophilicity of the compound assessed as retention time by RP-HPLC analysis; format: physicochemical
[8] = tested on: Human immunodeficiency virus; test: Substrate activity at HIV reverse transcriptase assessed as n+1 band formation incubated for 30 mins in presence of primer/template mixture and dNTPs by primer extension assay based fluorescence analysis
[9] = target: T1, DNA polymerase alpha catalytic subunit (Homo sapiens) (UniProt P09884); test: Substrate activity at human DNA polymerase alpha assessed as n+1 band formation incubated for 60 mins in presence of primer/template mixture and dNTPs by primer extension assay based fluorescence analysis
T1 sequence (whole entry): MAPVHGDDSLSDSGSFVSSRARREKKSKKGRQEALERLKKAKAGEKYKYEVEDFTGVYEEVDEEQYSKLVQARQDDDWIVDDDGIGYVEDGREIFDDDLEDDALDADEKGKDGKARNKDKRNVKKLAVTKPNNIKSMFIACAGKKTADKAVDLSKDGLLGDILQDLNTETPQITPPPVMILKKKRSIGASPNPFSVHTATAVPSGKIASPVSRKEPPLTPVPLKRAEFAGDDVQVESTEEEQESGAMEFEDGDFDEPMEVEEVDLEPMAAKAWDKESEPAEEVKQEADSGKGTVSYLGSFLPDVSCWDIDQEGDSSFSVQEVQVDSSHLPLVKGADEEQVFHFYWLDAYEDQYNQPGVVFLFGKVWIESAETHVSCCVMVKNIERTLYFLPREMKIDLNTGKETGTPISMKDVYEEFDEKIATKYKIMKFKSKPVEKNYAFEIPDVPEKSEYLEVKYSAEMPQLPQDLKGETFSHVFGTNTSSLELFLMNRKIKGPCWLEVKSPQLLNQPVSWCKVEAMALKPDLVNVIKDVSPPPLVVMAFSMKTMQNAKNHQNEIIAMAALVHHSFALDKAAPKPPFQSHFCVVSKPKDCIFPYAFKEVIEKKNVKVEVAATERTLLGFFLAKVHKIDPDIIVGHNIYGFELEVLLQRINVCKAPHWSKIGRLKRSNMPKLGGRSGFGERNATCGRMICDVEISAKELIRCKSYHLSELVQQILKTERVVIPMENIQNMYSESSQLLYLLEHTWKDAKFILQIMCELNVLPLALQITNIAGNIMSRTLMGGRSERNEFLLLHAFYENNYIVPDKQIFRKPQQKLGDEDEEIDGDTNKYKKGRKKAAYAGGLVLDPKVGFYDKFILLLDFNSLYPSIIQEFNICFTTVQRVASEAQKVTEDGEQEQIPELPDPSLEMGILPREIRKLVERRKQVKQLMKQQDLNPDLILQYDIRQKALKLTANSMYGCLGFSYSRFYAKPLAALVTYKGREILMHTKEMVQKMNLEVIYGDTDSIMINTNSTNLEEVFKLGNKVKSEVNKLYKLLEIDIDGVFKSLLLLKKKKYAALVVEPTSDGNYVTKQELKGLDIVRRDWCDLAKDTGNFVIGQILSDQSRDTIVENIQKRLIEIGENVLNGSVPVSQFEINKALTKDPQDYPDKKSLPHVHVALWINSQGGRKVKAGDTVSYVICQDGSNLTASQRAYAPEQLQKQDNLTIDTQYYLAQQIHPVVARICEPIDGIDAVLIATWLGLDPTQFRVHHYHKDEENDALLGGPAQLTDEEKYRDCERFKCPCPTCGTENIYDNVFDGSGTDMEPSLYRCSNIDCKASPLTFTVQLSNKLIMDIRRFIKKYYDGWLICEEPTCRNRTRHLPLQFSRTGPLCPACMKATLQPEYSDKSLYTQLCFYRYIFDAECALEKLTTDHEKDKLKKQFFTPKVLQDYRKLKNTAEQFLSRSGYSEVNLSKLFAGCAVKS

[10] = target: DNA polymerase beta (Homo sapiens) (UniProt P06746); test: Substrate activity at human DNA polymerase beta assessed as n+1 band formation incubated for 120 mins in presence of primer/template mixture and dNTPs by primer extension assay based fluorescence analysis
[11] = tested on: Human immunodeficiency virus 1; test: Antiviral activity against HIV-1 HE infected in wild type human CEM/0 cells assessed as inhibition of virus-induced giant cell formation incubated for 4 to 5 days by light microscopy; format: functional, organism-based; conditions: Human immunodeficiency virus 1, HE, CCRF-CEM
[12] = tested on: Human immunodeficiency virus 2; test: Antiviral activity against HIV-2 ROD infected in wild type human CEM/0 cells assessed as inhibition of virus-induced giant cell formation incubated for 4 to 5 days by light microscopy; format: functional, organism-based; conditions: Human immunodeficiency virus 2, ROD, CCRF-CEM
[13] = tested on: Human immunodeficiency virus 2; test: Antiviral activity against HIV-2 ROD infected in thymidine kinase deficient human CEM cells assessed as inhibition of virus-induced giant cell formation incubated for 4 to 5 days by light microscopy; format: functional, organism-based; conditions: Human immunodeficiency virus 2, ROD, CCRF-CEM
[14] = Cytotoxicity against human CEM cells assessed as inhibition of cell proliferation; format: toxicity, cell-based, CCRF-CEM
[15] = Selectivity index, ratio of CC50 for cytotoxicity against human CEM cells to EC50 for antiviral activity against HIV-2 ROD infected in thymidine kinase deficient human CEM cells; format: toxicity, cell-based; conditions: read-out: Ratio CC50/EC50

Structure (SMILES)	half-life [1]	half-life [2]	half-life [3]	half-life [4]	half-life [5]	Drug metabolism [6]	Retention_time [7]	Activity [8]	Activity [9]	Activity [10]	EC50 [11]	EC50 [12]	EC50 [13]	CC50 [14]	selectivity ratio [15]
CCCCCCCCCCCCCCCCCCOP(=O)(OCCCC)OP(=O)(O)OP(=O)(O)CO[C@H](C)Cn1cnc2c(N)ncnc21 (stereo not given in full)	> 20 h	257 h	> 100 h	> 8 h	> 8 h	Metabolite_Detected	15.5 min	Active	inactive	inactive	47 nM	19 nM	12 nM	44300 nM	3690
CCCCCCCCCCCCCCCCCCP(=O)(OCCCC)OP(=O)(O)CO[C@H](C)Cn1cnc2c(N)ncnc21 (stereo not given in full)	5.1 h	27 h	24 h	> 5 h	> 5 h	Metabolite_Detected	18.1 min	inactive	inactive	inactive	35 nM	3 nM	2 nM	37800 nM	14000
CCCCCCCCCCCCCCCCCCP(=O)(OCCCC)OP(=O)(O)OP(=O)(O)CO[C@H](C)Cn1cnc2c(N)ncnc21 (stereo not given in full)	> 8 h	> 500 h	> 100 h	> 8 h	> 8 h	Metabolite_Detected	15.2 min	inactive	inactive	inactive	78 nM	62 nM	33 nM	44600 nM	1350
